According to patent US8785452B2, “Anti-infective compounds” (priority 2008, dated 2014):
Values after ≈ are worked out from the molar mass of the structure shown. Like-named read-outs stand apart in the source and are kept apart here.

Legend:
[1] = tested on: M. tuberculosis clinical isolates; type: cell-based, Mycobacterium tuberculosis
BCG Pasteur-Tokyo = experiment: microbe, parasite or virus in culture; type: cell-based; conditions: Mycobacterium tuberculosis variant bovis BCG
C. jeikeium = experiment: Antimicrobial spectrum; type: cell-based, Corynebacterium; conditions: C. jeikeium, clinical isolates from CHU d'Angers
M. tuberculosis H37Ra = experiment: MIC, in vitro bacterial growth assay; type: cell-based; conditions: Mycobacterium tuberculosis, H37RA
[2] = tested on: Gram-negative: Acinetobacter baumannii, Escherichia coli, Enterobacter cloacae, E. aerogenes, Klebsiella oxytoca, Pseudomonas aeruginosa, Salmonella enteridis …; experiment: Antimicrobial spectrum; type: cell-based; conditions: Gram-negative panel, clinical isolates from CHU d'Angers
M. tuberculosis H37Rv [3] = experiment: MIC, in vitro bacterial growth assay; type: cell-based; conditions: Mycobacterium tuberculosis, H37RV
C. striatum = experiment: Antimicrobial spectrum; type: cell-based, Corynebacterium; conditions: C. striatum, clinical isolates from CHU d'Angers
[4] = tested on: Gram-positive: Staphylococcus aureus, S. epidermis, S. capitis, S. xylosus, Micrococcus luteus, Listeria innocua, Lactobacillus gallinarum, group G …; experiment: Antimicrobial spectrum; type: cell-based; conditions: Gram-positive panel, clinical isolates from CHU d'Angers
[5] = tested on: Fungi: Candida albicans, C. glabrata, C. parapsilosis; experiment: Antimicrobial spectrum; type: cell-based; conditions: Candida panel, clinical isolates from CHU d'Angers
SK-N-SH-Brain = experiment: Cytotoxicity assay (resazurin); type: cell-based; conditions: 5 days
Method: (§1) In order to address compound toxicity, seven cell lines originating from different body tissues were cultivated in the presence of 3-fold dilutions of compounds starting from 100 μM. After 5 days of culture, cell viability was assessed by the resazurin test. Briefly, cells were incubated with 10 μg/mL of resazurin (Sigma-Aldrich St. Louis, Mo.) for 4 h at 37° C. under 5% CO2. Resofurin fluorescence (RFU) was measured as indicated above. Percentage of toxicity on cells was calculated as follows: Cytotoxicity (%)=(RFUDMSO−RFUBlank)−(RFUcompound−RFUblank)/(RFUDMSO−RFUBlank)×100. Percentage of cytotoxicity was plotted against compound concentration and the minimal toxic concentration (MTC50) was determined by non-linear regression analysis as the lowest compound concentration where fifty percent toxicity was observed on the corresponding cell line.

THP-1-Monocytes = experiment: Cytotoxicity assay (resazurin); type: cell-based; conditions: 5 days
Method: as §1

HEK293-Kidney = experiment: Cytotoxicity assay (resazurin); type: cell-based; conditions: 5 days
Method: as §1

Jurkat-T-cell = experiment: Cytotoxicity assay (resazurin); type: cell-based; conditions: 5 days
Method: as §1

MRC5-Lung = experiment: Cytotoxicity assay (resazurin); type: cell-based; conditions: 5 days
Method: as §1

HepG2-Hepatocytes = experiment: Cytotoxicity assay (resazurin); type: cell-based; conditions: 5 days
Method: as §1

BJ-Skin = experiment: Cytotoxicity assay (resazurin); type: cell-based; conditions: 5 days
Method: as §1

Primary BMDM = experiment: Cytotoxicity assay (resazurin); conditions: 5 days
in vitro = conditions: human
M. bovis BCG Pasteur = experiment: microbe, parasite or virus in culture; type: cell-based; conditions: Mycobacterium tuberculosis variant bovis BCG
[6] = tested on: panel of cell lines derived from different body tissue; experiment: Cytotoxicity assay (resazurin), whole panel; conditions: 5 days co-incubation, 133 up to 100 μM
[7] = tested on: Primary human macrophages; experiment: Cytotoxicity assay (resazurin); conditions: 5 days
M. smegmatis mc^2 155 = experiment: MIC, in vitro bacterial growth assay; type: cell-based, Mycobacterium smegmatis; conditions: mc^2 155
M. tuberculosis H37Rv [8] = experiment: Conventional CFU determination in infected macrophages; type: cell-based, Mycobacterium tuberculosis; conditions: human and mouse cells; seven days after infection; 232 at 20 μM

Cc1cccn2c(=O)c(C=O)c(Nc3cccc(Cl)c3)nc12 [compound 133, 2-(3-Chlorophenylamino)-9-methyl-4-oxo-4H-pyrido[1,2-a]pyrimidine-3-carbaldehyde]
Range of MICs for multiple strains ([1]; Drug Sensitive, Tissue): 2.5 to 5 µM
Range of MICs for multiple strains ([1]; INH^R RIF^R Strep^R, Sputum): 0.3 to 1.2 µM
Range of MICs for multiple strains ([1]; INH^R RIF^R Strep^R, Tissue): 1.2 µM
Range of MICs for multiple strains ([1]; MDR, Sputum): 0.3 to 1.2 µM
Range of MICs for multiple strains ([1]; MDR, Tissue): 1.2 µM
Range of MICs for multiple strains ([1]; RIF^R, Sputum): 2.5 µM
Range of MICs for multiple strains ([1]; RIF^R, Tissue): 1.2 µM
Range of MICs for multiple strains ([1]; XDR, Sputum): 0.6 to 2.5 µM
Range of MICs for multiple strains ([1]; XDR, Tissue): 0.3 to 5 µM
MIC (BCG Pasteur-Tokyo): 2 µM (≈ 0.627 µg/mL)
antimicrobial effect (C. jeikeium): NE (NE: No effect up to 100 μg/mL equivalent to 320 μM)
MIC (M. tuberculosis H37Ra): 2 µM (≈ 0.627 µg/mL)
antimicrobial effect [2]: NE (NE: No effect up to 100 μg/mL equivalent to 320 μM)
MIC (M. tuberculosis H37Rv [3]): 2 µM (≈ 0.627 µg/mL)
antimicrobial effect (C. striatum): NE (NE: No effect up to 100 μg/mL equivalent to 320 μM)
antimicrobial effect [4]: NE (NE: No effect up to 100 μg/mL equivalent to 320 μM)
antimicrobial effect [5]: NE (NE: No effect up to 100 μg/mL equivalent to 320 μM)
Range of MTC50 (SK-N-SH-Brain): >100 µM
Range of MTC50 (THP-1-Monocytes): >100 µM
Range of MTC50 (HEK293-Kidney): >100 µM
Range of MTC50 (Jurkat-T-cell): >100 µM
Range of MTC50 (MRC5-Lung): >100 µM
Range of MTC50 (HepG2-Hepatocytes): >100 µM
Range of MTC50 (BJ-Skin): >100 µM
Range of MTC50 (Primary BMDM): >100 µM
selectivity ratio (in vitro): > 50
MIC (M. bovis BCG Pasteur): 2 µM (≈ 0.627 µg/mL)
cytotoxicity against the panel of cell lines [6]: no cytotoxicity
Range of MTC50 [7]: >100 µM
MIC (M. smegmatis mc^2 155; Mycolicibacterium smegmatis, MC^2155, read-out: MIC): > 100 µM
MIC (μM) (M. smegmatis mc^2 155): no effect
decrease in the number of CFUs (M. tuberculosis H37Rv [8]): ten-fold decrease
